Assay results reported in patent US20260027105A1, “COMPOUND MEDICINE COMPOSITION FOR TREATING GLAUCOMA AND USE OF SAME” (Shenyang Pharmaceutical University, priority 2022, published 2026).
Counter-ions that a name gives are not always drawn. Like-named read-outs stand apart in the source and are kept apart here.

Tests used:
[1] = Stability and compatibility of netarsudil dimesylate in boric acid-sodium borate buffer solution; assay type: physicochemical; settings: commercially available doses mixed in boric acid-sodium borate buffer solution, pH 4.5 to 5.4
[2] = prescribing information and literature reports of Rhopress®, cited from earlier work

Compound | compatibility with netarsudil dimesylate (white precipitate) [1] | stability in boric acid-sodium borate buffer solution ([2]; pH higher than 5.4) | stability in boric acid-sodium borate buffer solution ([2]; pH lower than 5.4, commercially available dose)
Cl [hydrochloric acid] | incompatible |  | 
O=C(O)/C=C\C(=O)O [maleic acid] | incompatible |  | 
netarsudil dimesylate |  | unstable and prone to generating precipitate | good in stability

Now from value to compound, other results behind:

compatibility with netarsudil dimesylate (white precipitate) [1] | Compound | stability in boric acid-sodium borate buffer solution ([2]; pH higher than 5.4) | stability in boric acid-sodium borate buffer solution ([2]; pH lower than 5.4, commercially available dose)
incompatible | CC(C)NCC(O)COc1ccc(CCOCC2CC2)cc1 (centres unmarked) [betaxolol hydrochloride] |  | 
incompatible | CC(C)(C)NCC(O)COc1cccc2c1CCC(=O)N2 (centres unmarked) [carteolol hydrochloride] |  | 
incompatible | CC(=O)Oc1c(C)cc(OCC(O)CNC(C)C)c(C)c1C (centres unmarked) [metipranolol hydrochloride] |  | 
incompatible | CC(C)(C)NC[C@H](O)COc1nsnc1N1CCOCC1 [timolol maleate] |  | 
